Test results from patent US20200157156A1, “GRATELOUPIA CHIANGII-DERIVED LECTIN AND LECTIN GENE CODING FOR THE SAME” (priority 2018, published 2020).
Structures can show the parent of a compound that is named as a salt.

How the values were obtained:
GCL [1] = assay: Glycan microarray (glycan-300 array) binding to GCL; set-up: species or system Grateloupia chiangii; conditions: 50 μg/mL biotinylated lectin; for RFU (Normalized) GCL: Cy3-streptavidin detection
Protocol: A glycan microarray was performed by Ebiogen (Korea). A glycan array kit was purchased from RayBioTech (Norcross, Ga., USA). An array consisting of 300 synthetic glycans printed in quadruplicate on a glass slide was used. Label-based detection was performed according to the manufacturer's protocol. 50 μg/mL of biotinylated lectin was put into wells, and gently shaken for 3 hours or more. The glass slide was washed with 1× washing buffers I and II provided in the kit. The glycan-lectin binding was detected by reacting with Cy3 equivalent dye-conjugated streptavidin at room temperature for an hour. Signals for Cy3 detection were visualized using a microarray laser scanner (Genfix 4100A, Molecular Devices, Sunnyvale, Calif., USA) (excitation at 554 nm, and emission at 568 nm). Data extraction was performed using microarray assay software Genfix. The […] array data was analyzed using RayBioTech (RayBioTech) software.
To determine the carbohydrate specificity, a glycan microarray was carried out using a glycan-300 array kit in which 300 different carbohydrates were immobilized. Referring to FIGS. 6 and 7 and Table 2 below, 18 of the 300 tested carbohydrates produced at least 1,000 positive signals. GCL produced weak binding signals to the monosaccharides, that is, β-Glc-sp, β-Gal-sp, and α-Man-sp. Normalized signal intensities were 2,579, 2,269, and 2,194, respectively. Also, the GCL was able to bind to maltotetraose-β-Sp1 with a signal intensity of 2,705. […] It was that high-mannan structures, that is, Man-α-1,6-(Man-α-1,3-), Man-α-1,6-(GlcNAc-β-1,2-Man-α-1,3-)Man-β-1,4-GlcNAc-β-1, and 4-GlcNAc-Sp5, interacted with the GCL.

GCL [2] = assay: Hemagglutination inhibition test (carbohydrate specificity of GCL); format: cell-based, Grateloupia chiangii; conditions: 4 haemagglutination activity units of GCL, equine red blood cells
Protocol: The carbohydrate specificity was determined by means of a hemagglutination inhibition test. Proteins and carbohydrates used for the inhibition test included D-glucose (D-Glc), D-mannose (D-Man), D-galactose (D-Gal), N-acetyl-D-glucosamine (GlcNAc), N-acetyl-D-galactosamine (GalNAc), D-fucose (F-Fuc), fructose (Fru), lactose (Lac), and fetuin. A sample (25 μL) having 4 haemagglutination activity units was mixed with each of the carbohydrates (25 μL), and 25 μL of a mixture was removed from each well. An equivalent amount of a 4% suspension of equine red blood cells was added to, and mixed with the sample. The plate was kept at room temperature for 30 minutes, and then confirmed for inhibitory activities.

[3] = Cytotoxicity (cell viability, MTT method)
Protocol: (§1) The antiviral effect was determined through cell viability, and the like using a virus-induced cytopathic effect (CPE) inhibition method and an MTT method.

[4] = test system: herpes simplex virus 1 (HSV1) (F); assay: Antiviral effect, CPE inhibition / MTT, HSV1; format: cell-based
Protocol: as §1

[5] = test system: herpes simplex virus 2 (HSV2) (MS); assay: Antiviral effect, CPE inhibition / MTT, HSV2; format: cell-based
Protocol: as §1

fetuin = assay: cell-based or functional assay
[6] = Thermal stability of GCL activity; format: physicochemical
Protocol: (§2) The thermal stability of GCL was measured at different temperatures (ranging from 20 to 90° C.). The GCL activities were not affected until the temperature reached 30° C. […] FIG. 5 is a graph for analyzing a change in degree of activity of CGL according to divalent cations added.

ovine red blood cells = assay: Hemagglutination assay, ovine red blood cells; format: cell-based, sheep; conditions: 4% suspension, room temperature, 30 minutes
Protocol: (§3) For a hemagglutination assay, horse and sheep blood was purchased (Hanil Comed, Korea). The blood was washed with phosphate buffered saline (PBS, pH 7.3) until a red color of a supernatant disappeared. Each of red blood cells was prepared into a 4% suspension in PBS. The sample was serially diluted in a 96-well U-bottom plate, and a 4% suspension of red blood cells was then added to each well. The sample was kept at room temperature for 30 minutes, and then confirmed for agglutination activities.

equine red blood cells = assay: Hemagglutination assay, equine red blood cells; format: cell-based, horse
Protocol: as §3

[7] = Effect of divalent cations on GCL activity; conditions: presence of divalent cations (Mg2+ and Ca2+)
Protocol: as §2

[8] = 4% suspension, room temperature, 30 minutes

For Gal-β-1,4-Glc-β-Sp [G0016], the “RFU (Normalized) GCL” value (GCL [1]) was 1,260 ± 126 RFU.

In the case of Glc-α-1,4-Glc-β-Sp1 [G0076], the “RFU (Normalized) GCL” value (GCL [1]) is reported as 1,238 ± 28 RFU.

For `O=C[C@@H](O)[C@@H](O)[C@H](O)[C@H](O)CO` [D-mannose], the “Concentration inhibiting haemagglutination activity of GCL” value (GCL [2]) was 125 mM.

With “Man-α-1,6-(Man-α-1,3-)Man-α-1,6-[Gal-β-1,4-(Fuc-α-1,3-)GlcNAc-β-1,2-Man-α-1,3-]Man-β-1,4-GlcNAc-β-1,4-GlcNAc-Sp5 [N-014]” the “RFU (Normalized) GCL” value (GCL [1]) was 1129 ± 151 RFU.

For “pentosan polysulfate [Penosan polysulfate]”, the “Toxicity CC50” value [3] was greater than 100 µg/mL, the “Antiviral activity (EC50) HSV1 (F)” value [4] was 4.77 µg/mL and the “Antiviral activity (EC50) HSV2 (MS)” value [5] was 2.10 µg/mL.

With β-GlcNAc-Sp [G0006] the “RFU (Normalized) GCL” value (GCL [1]) was 1,104 ± 133 RFU.

In the case of dextran sulfate 8000, the “Antiviral activity (EC50) HSV1 (F)” value [4] is reported as 15.54 µg/mL and the “Antiviral activity (EC50) HSV2 (MS)” value [5] is reported as 4.52 µg/mL.

In the case of Glc-α-1,2-Gal-α-Sp [G0048], the “RFU (Normalized) GCL” value (GCL [1]) is reported as 1,173 ± 110 RFU.

In the case of D-cellose-β-Sp1 [G0087], the “RFU (Normalized) GCL” value (GCL [1]) is reported as 1,165 ± 82 RFU.

For “Man-α-1,6-(Man-α-1,3-)Man-α-1,6-(GlcNAc-β-1,2-Man-α-1,3-)Man-β-1,4-GlcNAc-β-1,4-GlcNAc-Sp5 [N-010]”, the “RFU (Normalized) GCL” value (GCL [1]) was 1142 ± 116 RFU.

In the case of `Nc1nc2c(ncn2COCCO)c(=O)[nH]1` [Acyclovir], the CC50 [3] is reported as greater than 100 µg/mL, the “Selective index HSV1 (F)” value [4] is reported as greater than 192 and the EC50 ([4]; Human alphaherpesvirus 1, footnote: concentration, μM) is reported as 0.52 µM. The “Selective index HSV2 (MS)” value [5] was greater than 35 and the EC50 ([5]; Human alphaherpesvirus 2, footnote: concentration, μM) was 2.87 µM.

In the case of β-Glc-Sp [G0001], the Normalized signal intensity (GCL [1]) is reported as 2,579 and the “RFU (Normalized) GCL” value (GCL [1]) is reported as 2,273 ± 544 RFU.

In the case of Maltohexaose-β-Sp1 [G0082], the “Binding of GCL to glycan” value (GCL [1]) is reported as “strongly bound” and the “RFU (Normalized) GCL” value (GCL [1]) is reported as 7,524 ± 1,976 RFU.

With α-Man-Sp [G0003] the Normalized signal intensity (GCL [1]) was 2,194 and the “RFU (Normalized) GCL” value (GCL [1]) was 2,093 ± 294 RFU.

With Maltoheptaose-β-Sp1 [G0083] the “Binding of GCL to glycan” value (GCL [1]) was “strongly bound” and the “RFU (Normalized) GCL” value (GCL [1]) was 8,132 ± 1,810 RFU.

For “Man-α-1,6-(Man-α-1,3-)Man-α-1,6-(Gal-β-1,4-GlcNAc-β-1,2-Man-α-1,3-)Man-β-1,4-GlcNAc-β-1,4-GlcNAc-Sp5 [N-011]”, the “RFU (Normalized) GCL” value (GCL [1]) was 1148 ± 173 RFU.

For `O=C(CO)[C@@H](O)[C@H](O)[C@H](O)CO` [fructose], the “Concentration inhibiting haemagglutination activity of GCL” value (GCL [2]) was 250 mM.

With Gal-α-1,4-Gal-β-1,4-Glc-β-Sp [G0018] the “RFU (Normalized) GCL” value (GCL [1]) was 1,124 ± 47 RFU.

With “Grateloupia chiangii-derived lectin (GCL)” the inhibition of haemagglutination activity of GCL (4 haemagglutination activity units, equine red blood cells) (fetuin) was 195 µg/mL.

For β-Gal-Sp [G0002], the Normalized signal intensity (GCL [1]) was 2,269 and the “RFU (Normalized) GCL” value (GCL [1]) was 2,165 ± 237 RFU.

For `CN[C@@H]1[C@@H](O)[C@@H](O[C@@H]2[C@@H](O)[C@H](O[C@H]3OC(CN)=CC[C@H]3N)[C@@H](N)C[C@H]2N)OC[C@]1(C)O` [G0056, Sisomicin Sulfate], the “RFU (Normalized) GCL” value (GCL [1]) was 1,583 ± 177 RFU.

With Gal-β-1,4-Glc-Sp [H0400] the “RFU (Normalized) GCL” value (GCL [1]) was 1,044 ± 110 RFU.

With Maltotetraose-β-Sp1 [G0080] the Normalized signal intensity (GCL [1]) was 2,705 and the “RFU (Normalized) GCL” value (GCL [1]) was 2,577 ± 351 RFU.

B1: fetuin (protein, UniProt P12763 19-359, looked up)
Alpha-2-HS-glycoprotein: IPLDPVAGYKEPACDDPDTEQAALAAVDYINKHLPRGYKHTLNQIDSVKVWPRRPTGEVYDIEIDTLETTCHVLDPTPLANCSVRQQTQHAVEGDCDIHVLKQDGQFSVLFTKCDSSPDSAEDVRKLCPDCPLLAPLNDSRVVHAVEVALATFNAESNGSYLQLVEISRAQFVPLPVSVSVEFAVAATDCIAKEVVDPTKCNLLAEKQYGFCKGSVIQKALGGEDVRVTCTLFQTQPVIPQPQPDGAEAEAPSAVPDAAGPTPSAAGPPVASVVVGPSVVAVPLPLHRAHYDLRHTFSGVASVESSSGEAFHVGKTPIVGQPSIPGGPVRLCPGRIRYFKI
For B1, the “Concentration inhibiting haemagglutination activity of GCL” value (GCL [2]) was 195 µg/mL.

B2: GCL: lectin protein purified from red alga Grateloupia chiangii by D-mannose affinity chromatography, SEQ ID NO: 1, about 25 kDa (protein)
chain: MVVSNRLVSGESLHRGQHIISSDQHFMLVHQYDGNVVLYDVAGSGSGKPLWSTNTYGSHTTVFKMQEDSNLVLYATGGKPIWASDTHGSGGRFLEMQNDGNLVVYTDVGKPKWASDTHQGIAPRSEISVNQVLRIREGLHSANKRNELILQNDGNLVLSKNGSTAWSSGTAGTGANVLVLQIDGNLVLYNDTKSVWASGSMNKGGRTAVMQDDGNFVLYAEGGKPVWATNT
modifications: GLC
For B2, the “Toxicity CC50” value [3] was greater than 5 µg/mL, the “GCL activity according to temperature” value ([6]; at 40° C.) was “Half of the activities were lost” and the Initial activities maintained ([6]; heated at 90° C. for 30 minutes) was “approximately 15%”. The “GCL activity according to temperature” value ([6]; until the temperature reached 30° C.) was “not affected”, the “Agglutination of ovine red blood cells” value (ovine red blood cells) was “did not agglutinate” and the “Antiviral activity (EC50) HSV1 (F)” value [4] was 0.18 µg/mL. For the same molecule, the “Antiviral activity (EC50) HSV2 (MS)” value [5] was 0.036 µg/mL, the “Agglutination of equine red blood cells” value (equine red blood cells; [8]) was “agglutinated” and the “Minimal concentration for agglutination of equine red blood cells” value (equine red blood cells; [8]) was 0.8 µg/mL. The “Specific activity (Titer/mg)” value (equine red blood cells; hemagglutination titer per mg protein) was 51,200 Titer/mg, the “Total activity (Titer)” value (equine red blood cells; hemagglutination titer, purification step from 30 g sample) was 33,280 Titer and the “Change in activity by divalent cations” value [7] was “not highly affected”.
